Assay results taken from patent US20120225093A1, “Abrogating HIV-1 Infection via Drug-Induced Reactivation of Apoptosis” (UNIVERSITY OF MEDICINE AND DENTISTRY OF NEW JERSEY, priority 2010, published 2012).

What was measured:
[1] = test system: HIV-1; assay: Small trial of virological response to DEF in HIV-infected volunteers; assay type: in vivo, human
[2] = test system: uninfected H9 cells; assay: 89-kDa PARP fragment by flow cytometry in uninfected H9 cells; assay type: cell-based; conditions: 30 μM CPX, 24 hr
Protocol: (§1) Intracellular antigens were determined, as geometric means of fluorescence, by flow cytometric analysis using a BD FACSCalibur™ and its BD FACStation System™ (Becton Dickinson; San Jose, Calif.). Intracellular antigens were stained according to the instrument producer's instructions. Anti-HIV-1 Tat antibody was from Abcam Inc. (Cambridge, Mass.); anti-HIV-1 Vpr from Santa Cruz Biotechnology (Santa Cruz, Calif.); anti-HIV-1 Rev from Advanced Biotechnologies Inc. (Columbia, Md.); anti-HIV-1 p24 (KC57) from Beckman Coulter, Miami, Fla.; monoclonal C92-605 anti-human caspase-3 (active form) from Pharmingen (BD Biosciences, San Diego, Calif.); monoclonal F21-852 anti-human poly (ADP-ribose) polymerase (caspase-cleaved 89-kDa fragment); and monoclonal 6C8 anti-human Bcl-2 from Becton Dickinson (BD Biosciences; San Diego, Calif.).
To determine whether the differential effects of the drugs extend into late apoptosis, PARP fragmentation in H9 and H9-HIV cells was measured. CPX caused an ˜8-fold increase in H9-HIV cells positive for 89-kDa PARP, compared to a ˜2 fold increase in H9 cells (FIG. 9A). By 24 hr, twice as many cells stained positive for 89-kDa PARP in the infected cultures as in uninfected cultures (27% compared to 14%; FIG. 9B). […]

[3] = in vivo; cited from earlier work
[4] = test system: HIV-infected PBMCs; assay: TUNEL apoptosis in HIV-1 exposed PBMC cultures; assay type: cell-based, human; conditions: CPX 30 μM
Protocol: (§2) Uninfected PBMCs were co-incubated with infected PBMC stock in 24-well microplates at 2 ml/well Medium B, at a 10:1 ratio of uninfected-to-infected cells, and a total cell number of 1×10^6. Cultures were maintained and assayed for 6 consecutive days. CPX or Agent P2 was added at the time of inoculation or 12 hr later. Leaving the cell layer undisturbed, half the medium in each well was replenished every day, with concurrent adjustment of compound concentration. On each day during the 6-day experiments, a set of wells was harvested: the cells were processed for determination of viability and apoptosis, and the cell-free supernatants were stored at −80° C. for p24 and viral RNA measurements. […]
(§3) The potential across the mitochondrial membrane of live cells was determined flow-cytometrically with the lipophilic cationic fluorochrome JC-1 (5,5′,6,6′-tetrachloro-1,1′,3,3′-tetraethylbenzimidazolcarbocyanine iodide) immediately after sample harvest (BD™ Mitoscreen Kit, BD Biosciences; San Diego, Calif.). DNA fragmentation was quantified flow-cytometrically, using a TUNEL (terminal deoxynucleotide transferase dUTP nick end-labeling) assay (APO-BRDU™; Phoenix Flow Systems; San Diego, Calif.) and a dual-color assay for annexin V binding and 7-AAD exclusion (Annexin V-PE 7-AAD Apoptosis Detection Kit I™; BD Biosciences Pharmingen, San Jose, Calif.). […]

[5] = test system: uninfected PBMCs; assay: TUNEL apoptosis in uninfected PBMC cultures; assay type: cell-based, human; conditions: CPX 30 μM
Protocol: as §2, §3

[6] = test system: IFN-γ; assay: IFN-γ secretion by PBMC cultures (cytometric bead array); assay type: cell-based, human; conditions: CPX added at inoculation or 12 hr later; Phase I
Protocol: (§4) Uninfected PBMCs were co-incubated with infected PBMC stock in 24-well microplates at 2 ml/well Medium B, at a 10:1 ratio of uninfected-to-infected cells, and a total cell number of 1×10^6. Cultures were maintained and assayed for 6 consecutive days. CPX or Agent P2 was added at the time of inoculation or 12 hr later. Leaving the cell layer undisturbed, half the medium in each well was replenished every day, with concurrent adjustment of compound concentration. On each day during the 6-day experiments, a set of wells was harvested: the cells were processed for determination of viability and apoptosis, and the cell-free supernatants were stored at −80° C. for p24 and viral RNA measurements. Experiments were performed at least in duplicate and repeated at least twice.
(§5) p24 core antigen in the supernatant was quantified by ELISA (Retrotek HIV-1 p24™; ZeptoMetrix Corp.; Buffalo, N.Y.). HIV-1 RNA copy number in the supernatant was determined with a PCR-based and FDA-approved assay (Amplicor HIV-1 Monitor™; Roche Diagnostics Corp.; Indianapolis, Ind.). IFN-γ and IL-10 in the supernatant were determined by cytometric bead array (Human Th1/Th2 Cytokine Kit II™; BD Biosciences Pharmingen, San Jose, Calif.).
(§6) To further assess the cellular effects of CPX, the secretion of interferon (IFN)-γ and interleukin (IL)-10 was measured. […]

[7] = test system: IL-10; assay: IL-10 secretion by PBMC cultures (cytometric bead array); assay type: cell-based, human; conditions: CPX added at inoculation or 12 hr later; Phase I
Protocol: as §4, §5, §6

[8] = test system: H9-HIV cells; assay: 89-kDa PARP fragment by flow cytometry in H9-HIV cells; assay type: cell-based; conditions: 30 μM CPX, 24 hr
Protocol: as §1
To determine whether the differential effects of the drugs extend into late apoptosis, PARP fragmentation in H9 and H9-HIV cells was measured. CPX caused an ˜8-fold increase in H9-HIV cells positive for 89-kDa PARP, compared to a ˜2 fold increase in H9 cells (FIG. 9A). By 24 hr, twice as many cells stained positive for 89-kDa PARP in the infected cultures as in uninfected cultures (27% compared to 14%; FIG. 9B). […] It is concluded that the retroviral suppression of initiation and execution of apoptosis is reversed by the drugs and transformed into enhanced susceptibility of HIV-infected cells to apoptosis.

Structure (SMILES) | virological response after drug withdrawal [1] | cells positive for 89-kDa PARP [2] [%] | increase in cells positive for 89-kDa PARP ([2]; relative to untreated) [fold] | tolerability [3] | apoptotic (TUNEL-positive) cells ([4]; 144 hr after inoculation) | increase in proportion of TUNEL-positive PBMCs ([4]; HIV-infected cultures) [fold] | apoptotic (TUNEL-positive) cells ([5]; 144 hr) | change in proportion of TUNEL-positive PBMCs ([5]; uninfected cultures) | HIV-induced rise of IFN-γ [6] | HIV-induced rise of IL-10 [7] | 89-kDa PARP fluorescence intensity, infected versus uninfected [8] | cells positive for 89-kDa PARP [8] [%] | increase in cells positive for 89-kDa PARP ([8]; relative to untreated) [fold]
Cc1c(O)c(=O)ccn1C [DEF, 3-hydroxy-1,2-dimethylpyridin-4(1H)-one] | persistent off-medicine antiretroviral activity even eight weeks after drug withdrawal |  |  |  |  |  |  |  |  |  |  |  | 
Cc1cc(C2CCCCC2)n(O)c(=O)c1 [CPX, 6-cyclohexyl-1-hydroxy-4-methylpyridin-2[1H]-one] |  | 14 | ~2 | well tolerated | 71.8% (±8.8%) | ~10 | 24.1% (±3.2%) | roughly doubled | abolished the HIV-induced cytokine boost | abolished the HIV-induced cytokine boost | approximately one order of magnitude higher | 27 | ~8
